Values quoted from earlier work as cited in patent US8513407B2, “Process for the preparation of N-acyl-(epi)K5-amine-O-sulfate-derivatives and products thus obtained” (GLYCORES 2000 S.r.l., priority 2002, dated 2013).

Test system: HIV
Details: compared with K5-O-oversulfate and heparin

K5-N,O-oversulfate
anti-HIV activity: more active than K5-O-oversulfate and much more active than heparin
